Patent publication US10471028B2, “Small molecule efflux pump inhibitors” (UNIVERSITY OF ROCHESTER, priority 2014, dated 2019)

Columns and labels:
[1] = test system: A. baumannii strain 98-37-09; assay: Cellular accumulation of minocycline (HPLC, triple-quadrupole MS); type: cell-based, Acinetobacter baumannii; settings: human serum with 0.5 μg mL^−1 minocycline plus test compound (0.5×MEC, 1×MEC), 48 hours
Description: High pressure liquid chromatography and triple-quadrupole mass spectrometry were used to measure the A. baumannii intracellular levels of minocycline during growth in human serum in the absence and presence of each putative efflux pump inhibitor. […] Cultures were incubated for 48 hours with shaking, at which point an aliquot was removed, serially diluted, and plated to determine the number of viable CFU per mixture. The remainder of the cells were pelleted by centrifugation at 900×g at 4° C., washed twice in PBS, mechanically lysed with a FastPrep cell disrupter (MP Biomedicals, Santa Ana, Calif.) for 20 seconds at 5 m s^−1 and the cellular debris was pelleted via centrifugation at 900×g and 4° C. The amount of minocycline present within the supernatant of ruptured cells was measured. Briefly, doxycycline (0.5 μg mL^−1) was first added to each supernatant to serve as an internal control to account for sample-to-sample preparation variability. The supernatant was then combined with acetonitrile (ACN) at a 1:10 ratio and centrifuged at 16,000×g, at 4° C., to collect minocycline and doxycycline. […] residual liquid was evaporated in a speed vacuum for 2 hours at 8,000×g. To quantify the amount of antibiotics retained, sample materials were suspended in 50% acetonitrile, filtered through a 0.2 μm low protein binding hydrophilic membrane (Millipore, Billerica, Mass.) then separated on Shimadzu high performance liquid chromatography instrument (Fisher Scientific) using a BetaBasic C18 reverse phase column (Thermo Scientific). Separation was carried out with two mobile phase solutions consisting of solution (A) water with 0.1% formic acid and solution (B) 100% ACN. The gradient profile of the chromatography runs was as follows: from 0 to 0.1 min 8% solution B, ramp step wise (37% to 60% solution B) from 0.1 to 6.5 min then holding for one minute before ramping down from 60% to 10% from 7.5 to 8 min. This was followed a hold at 10% solution B for one minute. […] The column was equilibrated in 8% solution B at 40° C. and the flow rate was set to 0.2 mL min^−1. Mass spectrometry analysis of fractions was carried out using a Thermo TSQ Quantum Ultra triple quadrupole mass spectrometer (Fisher Scientific). Data were analyzed using Xcalibur software (Thermo Scientific); the following parameters were used to detect minocycline and the internal control doxycycline: 458.208 m/z→282.971 m/z (collision energy=43, tube lens=119) for minocycline and 445.144 m/z→266.900 m/z (collision energy=39, tube lens=127) for doxycycline. Analysis of the raw data was conducted by using the area under the curve calculations with the Genesis algorithm to determine the concentration in each sample. The difference between the peak intensity and the y intercept of pre-established minocycline and doxycycline standard curves was divided by the slope of the standard curve to quantify the amount of minocycline within each sample. The total concentration of minocycline within each cell was calculated by normalizing to the number of cells within each corresponding culture.

[2] = test system: A. baumannii strain 98-37-09; assay: MEC determination: potentiation of minocycline toward serum grown A. baumannii; type: cell-based, Acinetobacter baumannii; settings: for Log-reduction Colony Forming Units (ml^−1): 1×MEC of compound plus minocycline in serum, versus minocycline alone, plating; for MEC: lowest concentration inhibiting growth in 100% human serum with 0.5 μg ml^−1 minocycline, 48 hr
Description: The TimTec ActiProbe-25K diversity-set and Natural Product compound libraries (29,900 compounds total; TimTec, Newark, Del.) were initially screened for putative efflux pump inhibitors by identifying compounds that potentiated the antimicrobial property of a sub-inhibitory concentration of minocycline toward A. baumannii grown in human serum. To do so, A. baumannii strain 98-37-09 was grown for 16 hours in LB medium at 37° C. on a rotary shaker at 225 rpm. Approximately 1×10^5 CFU were then transferred to individual wells of a 96-well round-bottom plate (Corning Costar, Tewksbury, Mass.) containing 100 μL of human serum supplemented with of minocycline (0.5 μg mL^−1; 0.5× minimum inhibitory concentration in serum) and individual members of the Timtec ActiProbe or Natural product library (50 μM). Plates were then incubated at 37° C. for 48 hours. Growth was measured as a function of turbidity. Putative efflux pump inhibitors were identified as compounds that inhibited A. baumannii growth in human serum containing minocycline and were subsequently retested in triplicate, as indicated above. Untreated A. baumannii grown in serum supplemented with minocycline+/−PAβN served as positive and negative controls, respectively. […] Repeat testing in which well constituents were serial diluted and plated on LB agar plates validated that 85 compounds did indeed limit A. baumannii growth in serum supplemented with minocycline, reducing the number of viable colony forming units between 2-6 log cfu in comparison to minocycline alone treated cells.
The MEC was defined as the lowest concentration of test compound required to inhibit the growth of A. baumannii in serum in the presence of 0.5 μg ml^−1 minocycline. Plating confirmed that addition of 1×MEC of each compound elicited ≥1.9-log reduction in A. baumannii cells grown in serum supplemented with minocycline alone (see Table 1).

Structure (SMILES)	Minocylcine Per Cell (femtomoles cell^−1) [1]	Log-reduction Colony Forming Units (ml^−1) [2]	MEC [2]
N#CC1=C(N)n2c(s/c(=C\c3ccccc3Cl)c2=O)=C(C#N)C1c1ccccc1Cl (stereo not drawn) [ST006953]	4.31E−08 femtomoles cell^−1	2.71 log	4 µg/mL
Cc1ccc(C2N(Cc3ccccc3)CCN2Cc2ccccc2)s1 [ST008277]	4.41E−08 femtomoles cell^−1	5.19 log	4 µg/mL
Cc1cc(O)c(C(C)C)cc1C1(c2cc(C(C)C)c(O)cc2C)OC(=O)c2ccccc21 [ST009495]	4.7E−08 femtomoles cell^−1	2.23 log	2 µg/mL
Oc1ccccc1/C=N/c1nccs1 [ST009531]	5.88E−09 femtomoles cell^−1	2.77 log	2 µg/mL
NS(=O)(=O)c1ccc(/N=C/c2ccccc2O)cc1 [ST009655]	2.61E−07 femtomoles cell^−1	6.67 log	2 µg/mL
Cc1ccc(/C=N/c2ccc(S(N)(=O)=O)cc2)cc1 [ST009696]	8.2E−09 femtomoles cell^−1	5.67 log	4 µg/mL
CCOC(=O)C1=C(N)OC2=C(C(=O)CCC2)C1c1sccc1C (stereo not drawn) [ST009847]	2.54E−07 femtomoles cell^−1	4.97 log	2 µg/mL
N#CC1=C(N)OC2=C(C(=O)CCC2)C1c1c(Cl)cccc1Cl (stereo not drawn) [ST009850]	7.25E−08 femtomoles cell^−1	2.47 log	2 µg/mL
O=C(N/N=C/c1cccs1)c1ccncc1 [ST010260]	3.27E−08 femtomoles cell^−1	2.66 log	16 µg/mL
NS(=O)(=O)c1ccc(/N=C/c2cc(Br)ccc2O)cc1 [ST010344]	2.98E−08 femtomoles cell^−1	5.29 log	32 µg/mL
O=S(=O)(Nc1nccs1)c1ccc(/N=C/c2ccc3c(c2)OCO3)cc1 [ST012901]	4.16E−09 femtomoles cell^−1	2.66 log	2 µg/mL
N=C(N)NS(=O)(=O)c1ccc(/N=C/c2c(O)ccc3ccccc23)cc1 [ST012929]	2.74E−08 femtomoles cell^−1	4.64 log	32 µg/mL
O=S(=O)(Nc1nccs1)c1ccc(/N=C/c2c(O)ccc3ccccc23)cc1 [ST012934]	2.28E−08 femtomoles cell^−1	4.42 log	32 µg/mL
O=[N+]([O-])c1cc(/C=N/c2ccc(S(=O)(=O)NC3NC=CS3)cc2)c2c(c1)COCO2 (stereo not drawn) [ST012941]	8.12E−09 femtomoles cell^−1	6.23 log	64 µg/mL
O=S(=O)(Nc1nccs1)c1ccc(/N=C/c2cc(Cl)cc3c2OCOC3)cc1 [ST012955]	1.04E−08 femtomoles cell^−1	4.42 log	32 µg/mL
C/C(=N\c1ccc(S(=O)(=O)Nc2nccs2)cc1)c1ccc(O)cc1O [ST012963]	3.23E−08 femtomoles cell^−1	3.90 log	32 µg/mL
NNC(=O)CSCc1ccc(Cl)cc1 [ST020992]	1.53E−07 femtomoles cell^−1	7.43 log	2 µg/mL
C/C(Cn1nnc([N+](=O)[O-])n1)=N\NC(=O)CC#N [ST025773]	1.04E−07 femtomoles cell^−1	8.00 log	32 µg/mL
